One may read the Km as the concentration of substrate that gives half-maximal velocity. Broadly, the Vmax is the top rate of the reaction or transport when substrate is in excess.

The results in this text go back to patent US20100221763A1, “Specific Acceptors for Transferases to Saccharides and Method for Obtaining and Using Same” (Health Research, Inc, priority 2005, published 2010).

The target in experiment [1] is T1, Rat recombinant α2,6(N)ST (Rattus norvegicus, UniProt P13721).
T1 construct: purchased Calbiochem
T1 sequence (P13721 1-403): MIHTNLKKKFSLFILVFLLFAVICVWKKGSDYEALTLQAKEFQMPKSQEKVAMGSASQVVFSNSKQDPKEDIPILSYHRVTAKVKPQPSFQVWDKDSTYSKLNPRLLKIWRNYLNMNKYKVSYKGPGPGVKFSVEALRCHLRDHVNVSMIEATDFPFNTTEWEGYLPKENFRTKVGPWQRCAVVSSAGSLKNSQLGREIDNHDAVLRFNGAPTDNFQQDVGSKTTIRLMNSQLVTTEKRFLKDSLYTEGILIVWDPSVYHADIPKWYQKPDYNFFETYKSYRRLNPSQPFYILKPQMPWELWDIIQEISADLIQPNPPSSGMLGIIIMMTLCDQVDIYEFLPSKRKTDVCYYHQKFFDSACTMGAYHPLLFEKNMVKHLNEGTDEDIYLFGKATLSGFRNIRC
In words: Sialyltransferase assay with cloned α2,6(N)ST. Conditions: Table I; acceptor 7.5 mM; 100% = 43500 CPM (Galβ1,4GlcNAcβ-O—Al). Format: biochemical.

The target of experiment [2] is T2, Rat recombinant α2,3(O)ST (Rattus norvegicus, UniProt Q11205).
T2 construct: purchased Calbiochem
T2 sequence (Q11205 1-350): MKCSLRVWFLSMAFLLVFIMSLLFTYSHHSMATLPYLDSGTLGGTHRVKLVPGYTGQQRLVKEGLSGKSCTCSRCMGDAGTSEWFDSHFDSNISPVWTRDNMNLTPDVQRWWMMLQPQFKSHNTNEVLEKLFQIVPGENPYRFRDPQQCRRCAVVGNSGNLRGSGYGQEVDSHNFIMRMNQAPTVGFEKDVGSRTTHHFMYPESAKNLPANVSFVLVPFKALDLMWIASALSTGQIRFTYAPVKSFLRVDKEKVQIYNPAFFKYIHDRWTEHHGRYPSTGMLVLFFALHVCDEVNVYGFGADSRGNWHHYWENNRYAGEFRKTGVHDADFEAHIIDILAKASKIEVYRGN
In words: Sialyltransferase assay with cloned α2,3(O)ST. As to conditions: for Sialyltransferase activity (%) Cloned α2,3(O)ST: Table I, acceptor 7.5 mM, 100% = 40560 CPM (3-O-MeGalβ1,4GlcNAcβ1,6(Galβ1,3)GalNAcα-O-Bn); for Km / Vmax: CMP-NeuAc 150 μM, Lineweaver-Burke plot. Format: biochemical.

Experiment [3] deals with LNCaP α2,3(O)ST. Nature of the experiment: Sialyltransferase assay with LNCaP cell extract. It counts as biochemical, human. Conditions: Table I; acceptor 7.5 mM; 100% = 30930 CPM (3-O-MeGalβ1,4GlcNAcβ1,6(Galβ1,3)GalNAcα-O-Bn). The method in brief: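 LNCaP Triton X-100 extract (5 mg protein/ml; 0.1M Tris-maleate pH6.3) incubated with acceptor (typically 7.5 mM) and CMP-[9-3H]NeuAc (typically 0.2 μCi) in 0.1M Na cacodylate pH6.0, 2 h at 37 °C, in duplicate. Radioactive product separated on Dowex-1-formate, Sep-Pak C18 or Biogel P2 and counted by scintillation; blank without acceptor subtracted.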

Several values for one entry are separate records, joined by “and”; a condition that tells them apart may be missing. Identical values can stand only once.

In the case of `CO[C@H]1[C@H](O[C@H]2[C@H](O)[C@@H](CO)OC(O)[C@@H]2NC(C)=O)O[C@H](CO)[C@H](O)[C@@H]1O` (some centres unmarked) [2-O-MeGalβ1,3GlcNAc], the “Sialyltransferase activity (%) Cloned α2,6(N)ST” value in experiment [1] is listed as 3.7%. Besides, the “Sialyltransferase activity (%) Cloned α2,3(O)ST” value in experiment [2] stood at 2.9%.
For `CO[C@H]1[C@H](O[C@H]2[C@H](O)[C@@H](NC(C)=O)C(O)O[C@@H]2CO)O[C@H](CO)[C@H](O)[C@@H]1O` (some centres unmarked) [2-O-MeGalβ1,4GlcNAc], in that order: 90.1% and 0.2%.
On to `CO[C@H]1O[C@H](CO)[C@H](O)[C@H](O[C@@H]2O[C@H](CO)[C@H](O)[C@H](O[C@@H]3O[C@H](C)[C@H](O)[C@H](O)[C@H]3O)[C@H]2NC(C)=O)[C@H]1O` [D-Fucβ1,3GalNAcβ1,3Galα-O-Me], for which the “Sialyltransferase activity (%) LNCaP α2,3(O)ST” value in experiment [3] worked out at 9.6%. In experiment [1], the “Sialyltransferase activity (%) Cloned α2,6(N)ST” value came out at 2.5%. In experiment [2], the Km came out at 560 µM, the Vmax was 1873 pmol/h and the “Sialyltransferase activity (%) Cloned α2,3(O)ST” value is given as 115.6^3%.
On to `C=CCO[C@H]1O[C@H](CO)[C@H](O)[C@H](O[C@@H]2O[C@H](CO)[C@H](O)[C@H](O)[C@H]2O)[C@H]1NC(C)=O` [Galβ1,3GalNAcα-O—Al], for which the “Sialyltransferase activity (%) LNCaP α2,3(O)ST” value in experiment [3] is 34.4%. Besides, the “Sialyltransferase activity (%) Cloned α2,6(N)ST” value in experiment [1] worked out at 0.2%. For the same molecule, the “Sialyltransferase activity (%) Cloned α2,3(O)ST” value in experiment [2] is listed as 112.0%.
`CO[C@H]1O[C@H](CO)[C@H](O)[C@H](O[C@@H]2O[C@H](CO)[C@H](O)[C@H](O[C@@H]3O[C@H](CO)[C@H](O)[C@H](O)[C@H]3O)[C@H]2NC(C)=O)[C@H]1O` [Galβ1,3GalNAcβ1,3Galα-O-Me]: in experiment [3], the “Sialyltransferase activity (%) LNCaP α2,3(O)ST” value is recorded as 34.3%. Besides, the “Sialyltransferase activity (%) Cloned α2,6(N)ST” value in experiment [1] is 1.1%. In experiment [2], the Km amounted to 120 µM; the Vmax was 1293^13 pmol/h; the “Sialyltransferase activity (%) Cloned α2,3(O)ST” value is 120.8% and 120.8^2%.
